Experimental data reported in US12458638B2, “Method of stimulating neutrophil survival and reducing neutropenia” (BEYONDSPRING PHARMACEUTICALS, INC., priority 2017, dated 2025).
Like-named read-outs stand apart in the source and are kept apart here.

What was measured:
[1] = tested on: docetaxel-induced neutropenia; assay: Grade 4 neutropenia in patients on docetaxel with or without plinabulin; assay type: in vivo, human; settings: for proportion of patients with Grade 4 neutropenia: Cycle 1, Day 8, ANC<0.5×10^9/L, docetaxel alone vs plinabulin added to docetaxel, p<0.0003
[2] = Safety / product profile of plinabulin vs G-CSF in patients (bone pain, hospitalization, hypertension, laboratory parameters); assay type: in vivo, human
[3] = tested on: neutropenia caused by chemotherapies; assay: Animal model studies of chemotherapy-caused neutropenia; assay type: in vivo; settings: animal models; docetaxel, cisplatin, adriamycin, cyclosphosphamide, topotecan, gemcitabine
From the text: Clinical complications of neutropenia (febrile neutropenia, infections, sepsis, and mortality) occur with Grade 4 Neutropenia, as compared to with Grade 2 or 3 Neutropenia. For regulatory approval, the FDA and Health Authorities focus on Grade 4 Neutropenia data.

[4] = tested on: docetaxel-induced neutropenia; assay: Randomized double blind study, plinabulin vs pegfilgrastim in solid tumor patients receiving docetaxel (Example 4); assay type: in vivo, human; settings: for neutrophil count through time (FIG. 1): after docetaxel 75 mg/m^2
Protocol: A randomized, double blind study to evaluate duration of severe neutropenia with plinabulin versus pegfilgrastim in patients with solid tumors receiving docetaxel myelosuppressive chemotherapy was performed. Patients were randomly assigned to the following arms (with the respective sample sizes): Arm 1: Docetaxel (75 mg/m^2)+Pegfilgrastim (6 mg) (n=14); Arm 2: Docetaxel (75 mg/m^2)+Plinabulin (20 mg/m^2) (n=14); Arm 3: Docetaxel (75 mg/m^2)+Plinabulin (10 mg/m^2) (n=14); and Arm 4: Docetaxel (75 mg/m^2)+Plinabulin (5 mg/m^2) (n=13).

[5] = tested on: NSCLC patients with a measurable lesion; settings: human, in vivo
[6] = tested on: docetaxel-induced severe neutropenia; assay: Calculated DSN from Day 8 neutrophil nadir values (simulation, Deming regression); assay type: in vivo, human; settings: from observed Day 8 neutrophil (nadir) values, Cycle 1
From the text: DSN is obtained using the following methods (described below) for generation of ANC data and the observed neutrophil values on Day 8/Cycle 1 in the Phase 2 study. […] The study may assume that the shape of the time/neutrophil recovery curve in plinabulin-treated patients is indistinguishable from the time/neutrophil recovery curve for filgrastim and its biosimilars.
Mean values and standard deviations of ANC during the 21-day follow-up period can be obtained from the reference. […] The simulation would then also generate the projected number of days with severe neutropenia, (i.e., the DSN).

[7] = tested on: chemotherapy-induced febrile/severe neutropenia; assay: Reported FN frequency and DSN with docetaxel or TAC chemotherapy, with or without G-CSF; assay type: in vivo, human; settings: docetaxel monotherapy 75 mg/m^2 without G-CSF
Protocol: The frequency of FN with docetaxel monotherapy (100 mg/m^2)+G-CSF is reported to be 1% in Cycle 1. […] 2002; 20:727-731.
The FN percentage is about 12.7% with 75 mg/m^2 docetaxel. Based on this range of FN and the relationship established between FN and DSN, the assumption is that, with docetaxel monotherapy at a dose of 75 mg/m^2 without G-CSF, the median DSN is estimated to be 4-5 days.
The margin can be selected based on the data that Taxotere/Adriamycin/cyclophosphamide (TAC) chemotherapy can induce a median DSN of 7 days in breast cancer patients receiving no G-CSF treatment, while G-CSF treatment reduces the mean DSN for this chemotherapy to 1.4 days (95% CI: 1.07-1.69) as shown in pegfilgrastim Study. Based on this a non-inferiority limit of 1 day is derived.

[8] = tested on: chemotherapy-induced febrile/severe neutropenia; settings: cited from earlier work
CYP3A4 = CYP3A4 (Homo sapiens, UniProt P08684); settings: with the use of strong CYP3A4 inhibitors; cited from earlier work
[9] = G-CSF, Table 1; cited from earlier work
[10] = most common adverse reactions; cited from earlier work
[11] = Plinabulin 5 mg/m2 + docetaxel 75 mg/m^2
[12] = Plinabulin 10 mg/m2 + docetaxel 75 mg/m^2
[13] = Plinabulin 20 mg/m2 + docetaxel 75 mg/m^2
[14] = Neulasta 6 mg + docetaxel 75 mg/m^2

Sequence of CYP3A4 (P08684 whole entry): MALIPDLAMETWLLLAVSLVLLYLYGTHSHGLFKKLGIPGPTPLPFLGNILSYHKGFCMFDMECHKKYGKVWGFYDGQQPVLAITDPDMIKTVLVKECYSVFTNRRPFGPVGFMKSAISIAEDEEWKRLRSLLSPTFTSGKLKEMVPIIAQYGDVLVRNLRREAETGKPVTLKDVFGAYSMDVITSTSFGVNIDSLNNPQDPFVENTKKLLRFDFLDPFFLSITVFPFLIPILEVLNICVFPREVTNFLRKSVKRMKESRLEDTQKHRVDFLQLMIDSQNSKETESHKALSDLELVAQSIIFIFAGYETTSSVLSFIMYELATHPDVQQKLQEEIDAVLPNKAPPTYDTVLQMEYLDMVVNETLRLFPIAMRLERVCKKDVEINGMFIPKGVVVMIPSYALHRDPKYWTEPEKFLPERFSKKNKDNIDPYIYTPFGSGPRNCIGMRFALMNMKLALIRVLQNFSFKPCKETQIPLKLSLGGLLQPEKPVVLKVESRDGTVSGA

CC(C)(C)c1[nH]cnc1/C=c1\[nH]c(=O)/c(=C/c2ccccc2)[nH]c1=O [Plinabulin, (3Z,6Z)-3-Benzylidene-6-{[5-(2-methyl-2-propanyl)-1H-imidazol-4-yl]methylene}-2,5-piperazinedione]
proportion of patients with Grade 4 neutropenia [1]: 4.6%
clinical sequelae associated with docetaxel-induced neutropenia (sepsis, infections, hospitalizations, docetaxel dose reductions, G-CSF use) ([1]; human, in vivo): reduced
Grade 3 transient hypertension, patients ([2]; 20 mg/m^2 plinabulin): 5%
Grade 3 transient hypertension, patients ([2]; 30 mg/m^2 plinabulin): 20%
Bone Pain (% of patients) ([2]; Plinabulin, Table 1): <4%
Hospitalization (% of patients) ([2]; Plinabulin, Table 1): 6%
Bone pain, patients reporting ([2]; patients receiving plinabulin): 4%
changes in hematology or chemistry laboratory parameters ([2]; plinabulin monotherapy, solid tumor patients, no chemotherapy): did not experience any clinically significant deleterious changes
prevention of neutropenia caused by chemotherapies [3]: prevent neutropenia
DSN [4, 11]: 0.46 days
Grade 4 Incidence (%) [4, 11]: 23%
DSN [4, 12]: 0.43 days
Grade 4 Incidence (%) [4, 12]: 21%
DSN [4, 13]: 0.38 days
Grade 4 Incidence (%) [4, 13]: 15%
neutrophil count through time (FIG. 1) [4]: started to rise again on day 10
treatment of neutropenia induced by chemotherapeutic agent ([4]; human, in vivo): effective in treating neutropenia
Immune-Related AEs (IR-AEs) [5]: without increasing Immune-Related AEs

CC(=O)O[C@@]12CO[C@@H]1C[C@H](O)[C@@]1(C)C(=O)[C@H](O)C3=C(C)[C@@H](OC(=O)[C@H](O)[C@@H](NC(=O)OC(C)(C)C)c4ccccc4)C[C@@](O)([C@@H](OC(=O)c4ccccc4)[C@H]21)C3(C)C [docetaxel]
proportion of patients with Grade 4 neutropenia [1]: 33.3%
calculated mean DSN [6]: 1.076 days
estimated median DSN [7]: 4 to 5 days
FN percentage ([8]; 75 mg/m^2 docetaxel): about 12.7%
frequency of FN ([8]; Cycle 1, docetaxel 100 mg/m^2 without G-CSF): 11%
frequency of FN ([8]; over all cycles, docetaxel 60 mg/m^2 without G-CSF): 19.8%
frequency of FN ([8]; over all cycles, docetaxel 100 mg/m^2 without G-CSF): 17%
increase of docetaxel exposure (CYP3A4): approximately 2 fold

B1: G-CSF: Granulocyte-colony stimulating factor; G-CSF compounds include filgrastim and pegfilgrastim (protein, UniProt P09919 31-207, looked up)
Granulocyte …: TPLGPASSLPQSFLLKCLEQVRKIQGDGAALQEKLVSECATYKLCHPEELVLLGHSLGIPWAPLSSCPSQALQLAGCLSQLHSGLFLYQGLLQALEGISPELGPTLDTLQLDVADFATTIWQQMEELGMAPALQPTQGAMPAFASAFQRRAGGVLVASHLQSFLEVSYRVLRHLAQP
Bone Pain (% of patients) [9]: >20%
Hospitalization (% of patients) [9]: 20%
mean DSN ([8]; G-CSF treatment with TAC chemotherapy, 95% CI: 1.07-1.69): 1.4 days

B2: Neulasta: pegfilgrastim (Neulasta®), a granulocyte colony-stimulating factor (G-CSF) compound (protein, chains of the INN, looked up)
chain: TPLGPASSLPQSFLLKCLEQVRKIQGDGAALQEKLCATYKLCHPEELVLLGHSLGIPWAPLSSCPSQALQLAGCLSQLHSGLFLYQGLLQALEGISPELGPTLDTLQLDVADFATTIWQQMEELGMAPALQPTQGAMPAFASAFQRRAGGVLVASHLQSFLEVSYRVLRHLAQP
DSN [4, 14]: 0.14 days
Grade 4 Incidence (%) [4, 14]: 14%
neutrophil count through time (FIG. 1) [4]: had an initial increase and then began to drop after 10 days
bone pain, patients [10]: 31%
pain in an extremity, patients [10]: 9%
